Results: PubChem BioAssay AID651964 (The Scripps Research Institute Molecular Screening Center, 2012)

Key:
Assay in all cases: PubChem AID 651964; call rule not given here
HO-1 = conditions: mouse embryonic fibroblasts, qRT-PCR mRNA fold induction, at 10 µM (top of the series)
GCLM = conditions: mouse embryonic fibroblasts, qRT-PCR mRNA fold induction, at 10 µM (top of the series)
Hsp70 = conditions: mouse embryonic fibroblasts, qRT-PCR mRNA fold induction, at 10 µM (top of the series)
[1] = biological target: DNA damage-inducible transcript 3 protein (Mus musculus) (UniProt P35639); conditions: mouse embryonic fibroblasts, qRT-PCR mRNA fold induction; CHOP; at 10 µM (top of the series)
Sequence of DNA damage-inducible transcript 3 protein (Mus musculus) (P35639 whole entry, looked up): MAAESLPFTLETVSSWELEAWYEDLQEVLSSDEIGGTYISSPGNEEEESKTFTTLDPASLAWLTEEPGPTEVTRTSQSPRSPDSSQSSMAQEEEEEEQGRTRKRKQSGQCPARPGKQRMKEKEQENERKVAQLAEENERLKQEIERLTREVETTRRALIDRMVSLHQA

BiP = conditions: mouse embryonic fibroblasts, qRT-PCR mRNA fold induction, at 10 µM (top of the series)

Measured: fold induction of mRNA

COc1ccc(/C=C/C=C2C(=O)NC(=O)NC2=O)cc1
active: HO-1 5.54 | GCLM 1.6 | Hsp70 18.9 | [1] 2.08 | BiP 2.18
